# US7105635B2, “Cyclic beta-sheet peptides useful as apoptotic/cytotoxic cancer agents” (The University of Toledo, priority 2002, dated 2006)
# pEC50, pKd: −log10 of the molar value. “Also recorded” adds a separate entry of the source. Where two headings read alike, the source gives them in different places. Positions of bridges follow the written chain, without caps; N, C: chain ends. Residues, ends and D or L forms follow the SMILES beside them. No end group written: not given here. *: point of attachment. Biotin = O=C1N[C@H]2[C@H](CS[C@H]2CCCCC(=O)*)N1
# Legend:
# [1] = test system: normal human peripheral blood lymphocytes; experiment: biotin-avidin sorbant binding assay, normal human PBL's; settings: with or without non-biotinylated L1AD3
# Procedure: FIG. 13 is a graph showing inhibition of specific binding of biotinylated L1AD3 to normal human peripheral blood lymphocytes by non-biotinylated L1AD3, and abolition of binding by pretreatment of CEM cells with trypsin. The lower two traces in the figure were developed as described above for FIG. 12, except that the target cells were human PBL's that had been isolated about 4 hours before the assay. […] In this case, 0.0125% trypsin was incubated with adherent cells for 10 min, followed by three washes and subsequent addition of soybean trypsin inhibitor.
# (§3) A biotin-avidin sorbant assay, similar to an ELISA procedure was performed to measure binding. In this assay, horseradish peroxidase-conjugated avidin was employed rather than an enzyme-linked second antibody. Mouse anti-human MHC-1 (anti HLA-A,-B,-C) antibody was used to hold CEM or normal human cells to the surface of 96-well microtiter plates.
# CEM cells [2] = experiment: biotin-avidin sorbant binding assay, adherent CEM cells; set-up: species or system human; settings: for binding after pretreatment of cells with trypsin: solid-phase assay
# Procedure: CEM cells were held on the surface of 96-well plates previously coated with anti-human MHC-1 antibody (anti-HLA-A,B,C). After plates containing adherent cells were blocked with bovine albumin and washed with PBS, biotinylated L1AD3, either alone (upper trace) or in a 1:1 ratio with non-biotinylated L1AD3 (lower trace), was added to triplicate wells to achieve the indicated final concentrations. After a 1-hour incubation at 37 degrees, plates were washed three times with PBS, and avidin-HRP was added. Enzyme substrate (ABTS) was added, and color development at 415 nm was monitored using an ELISA plate reader with printed output.
# The lower two traces in the figure were developed as described above for FIG. 12, except that the target cells were human PBL's that had been isolated about 4 hours before the assay. […] In this case, 0.0125% trypsin was incubated with adherent cells for 10 min, followed by three washes and subsequent addition of soybean trypsin inhibitor.
# as §3
# (§4) In order to investigate the nature of the binding site for L1AD3 on tumor cells, trypsin was added to the cells and subsequently quenched by adding enzyme inhibitor prior to measurements of binding, using biotinylated peptide in either the solid-phase or the fluorescent assay described above.
# CEM cells [3] = test system: CEM cells
# Procedure: To investigate peptide binding to cell surfaces, the peptide was modified by N-terminal biotinylation. […] A biotin-avidin sorbant assay, similar to an ELISA procedure was performed to measure binding. In this assay, horseradish peroxidase-conjugated avidin was employed rather than an enzyme-linked second antibody. Mouse anti-human MHC-1 (anti HLA-A,-B,-C) antibody was used to hold CEM or normal human cells to the surface of 96-well microtiter plates.
# as §4
# CEM cells [4] = experiment: luciferin/luciferase bioluminescence assay of total ATP in CEM cells; format: cell-based, human
# Procedure: FIG. 9 is a graph showing the amounts of total ATP present in cell lysates following incubation of CEM cells with peptide analogs. Cyclized peptides were added at double their final concentration, which was 20 μM, to triplicate wells of a black 96-well reaction plate. CEM cells (50,000 per well) were added in the same volume, and the plate was incubated 30 minutes at 37 degrees. Lysis buffer (Sigma) was added, followed by luciferin/luciferase assay buffer (Molecular Probes). The plate was sealed with a clear plastic film and read using a Packard Top-Count reader. Cells with medium only had ATP levels of 1073±160 in arbitrary luminescence units. Peptide analogs are identified by single amino acid modifications.
# Changes in cellular energy levels can contribute to the process of cytotoxicity. ATP was measured using a 96-well luciferin/luciferase bioluminescence assay system and found a 60% reduction in ATP after 30 minutes' incubation of CEM cells with 20 μM L1AD3, as shown in FIG. 9. While somewhat large, this reduction of ATP is consistent with apoptosis, inasmuch as necrosis tends to occur when ATP levels drop to below 30% of control.
# CEM cells [5] = test system: CEM cells; remark: listed apart in the source
# CEM cells [6] = experiment: [3H]-thymidine incorporation into DNA of CEM cells; format: cell-based, human; settings: for pEC50: CEM cells, FIG. 8, read-out: EC50, inhibition of thymidine incorporation into DNA
# Procedure: FIG. 8 is a graph showing percent inhibition of thymidine incorporation as a function of peptide concentration. Each well of a microtiter plate received 200,000 CEM cells in log phase of growth, suspended in 50 μl complete medium. The same volume of diluted peptide, either linear or cyclized, was added to achieve the final concentrations shown. After a 1 -hour incubation at 37 degrees C., 1 μCi of [^3H]-thymidine in 25 μl medium was added, and the plates were incubated another 3 hours prior to harvesting. Control cells were incubated without either peptide, but with the same volume of medium.
# The peptide called L1AD3, Seq. ID No. 1, prevents the proliferation of cancerous human T-lymphocytes (CEM cell line) by inhibiting incorporation of thymidine into DNA.
# (§1) The L1AD3 peptide stops tumor cell division in both Jurkat and CEM cells with an EC50 of approximately 5 μM, as shown in FIG. 8. This is indicated by the inhibition of thymidine incorporation into DNA. […] In contrast to CTX, which rapidly depolarized skeletal muscle (Dufton and Hider, 1991), and which at 1 μM concentrations causes cessation of beating of embryonic chicken heart cells within 5–10 seconds, the L1AD3 peptide at 40 μM concentrations has no effect upon the beating of heart cells over 2 hours of observation. Therefore, it is believed that the L1AD3 peptide, along with the other seven peptides, is not harmful to the heart, in contrast to native CTX.
# [7] = test system: normal human peripheral white blood cells (PBL's); experiment: Annexin-V binding / phosphatidyl serine externalization, normal human white blood cells; format: cell-based
# Jurkat cells = experiment: thymidine incorporation into DNA of Jurkat cells; format: cell-based, human; settings: read-out: EC50, inhibition of thymidine incorporation into DNA
# Procedure: as §1
# normal human cells = experiment: permeabilization of normal human cells (propidium iodide, ethidium bromide, trypan blue); format: cell-based; settings: ethidium bromide or trypan blue
# From the text: (§2) The L1AD3 peptide composition, Seq. […] It is believed that there is an absence of the L1AD3 protein receptor on the surface of normal human white blood cells, whereas the L1AD3 protein receptor target is found in the surface of leukemic T-cells.
# [8] = test system: embryonic chicken heart cells; experiment: beating of heart cells; format: cell-based; settings: for time to cessation of beating of heart cells: 1 μM
# Procedure: as §2, §1
# CEM cells [9] = experiment: cell permeability to ethidium bromide / propidium iodide, CEM cells; format: cell-based, human; settings: for cell permeability to ethidium bromide or propidium iodide: CEM cells
# Procedure: FIG. 11 is a graph showing changes in cell permeability to ethidium bromide following incubation with L1AD3 or with native CTX. CEM cells (10^6/ml) were incubated in quartz cuvets in a Shimidzu fluorescence spectrophotometer with 1 μg/ml ethidium bromide. Either CTX at a final concentration of 1.6 μM or L1AD3 at a final concentration of 40 μM was added, and readings were taken at 5-minute intervals, with excitation at 526 nm and emission measured at 608 nm.
# Flow cytometry using fluorescent Annexin-V distinguishes cells with externalized phosphatidyl serine. As long as the cell's plasma membrane remains intact, fluorescent dyes such as ethidium bromide or propidium iodide are excluded. A 40 μM concentration of L1AD3 caused approximately 93% of CEM cells to become Annexin-V-positive within 2.5 hours, which is unusually short for signs of apoptosis to occur. Camptothecin, a cancer chemotherapeutic agent administered in control experiments at 20 μM, caused only 33% of the cells to appear apoptotic.
# Since whole CTX can rapidly permeabilize leukemic T-lymphocytes, separate experiments using a fluorescence spectrophotometer were applied to examine changes in plasma membrane permeability to ethidium bromide following exposure of CEM cells either to L1AD3 or to CTX.
# [10] = test system: human leukemic T-lymphocytes; settings: previous comparisons of native toxins (Stevens-Truss & Hinman, 1997); cited from earlier work
# CEM cells [11] = experiment: Annexin-V-FITC flow cytometry of phosphatidyl serine exposure (apoptosis), CEM cells; format: cell-based, human; settings: 20 μM, control experiments
# Procedure: FIGS. 10a–d are graphs showing comparisons of phosphatidyl serine exposure on the outer surface of CEM cells following a 2.5-hour incubation with or without 40 μM cyclized L1AD3. After incubation, cells were washed twice with cold PBS prior to adding FITC-conjugated Annexin-V. Flow cytometry using a B-D FACSCalibur was performed, and 10,000 cells were analyzed using the B-D CellQuest program. Individual cells are represented in the dot plots on the left (FIGS. 10a and 10c), and histograms of the same data are on the right (FIGS. 10b and d). Whereas untreated tumor cells show less than 6% spontaneous apoptosis (FIG. 10c, lower left quadrant), 93% of cells treated with L1AD3 undergo apoptosis after 2.5 hours (FIG. 10d, lower right quadrant).
# Flow cytometry using fluorescent Annexin-V distinguishes cells with externalized phosphatidyl serine. As long as the cell's plasma membrane remains intact, fluorescent dyes such as ethidium bromide or propidium iodide are excluded. A 40 μM concentration of L1AD3 caused approximately 93% of CEM cells to become Annexin-V-positive within 2.5 hours, which is unusually short for signs of apoptosis to occur. Camptothecin, a cancer chemotherapeutic agent administered in control experiments at 20 μM, caused only 33% of the cells to appear apoptotic. […]
compound,measurement,setting,value
Biotin-LKCNKLVPLFYKTC (cysteine pairing not given here) [biotinylated L1AD3],binding to normal human white blood cells / PBL's,[1],did not bind appreciably
same,binding to human cancer cells,CEM cells [2],bound human cancer cells; also recorded: preserves its ability to bind cancer cells
same,pKd,"CEM cells [2]; saturable binding, read-out: apparent KD of binding to CEM cells",~5.22
same,binding after pretreatment of cells with trypsin,CEM cells [2],abolished
same,binding after pretreatment of cells with trypsin,CEM cells [2]; listed as biotinylated peptide,abolished binding
same,fluorescence increase over cells not incubated with biotinylated peptide,"CEM cells [3]; avidin-FITC, CEM cells in suspension",48%
same,binding after pretreatment of cells with trypsin,CEM cells [3]; fluorescent assay,abolished binding
same,ability to reduce ATP levels in cancer cells,CEM cells [4],retains its ability to reduce ATP levels
same,other activities after biotinylation,CEM cells [5],significantly diminished
"CC(C)C[C@@H]1NC(=O)[C@H](CCCCN)NC(=O)[C@H](CC(N)=O)NC(=O)[C@@H](NC(=O)[C@H](CCCCN)NC(=O)[C@@H](N)CC(C)C)CSSC[C@@H](C(=O)O)NC(=O)[C@H]([C@@H](C)O)NC(=O)[C@H](CCCCN)NC(=O)[C@H](Cc2ccc(O)cc2)NC(=O)[C@H](Cc2ccccc2)NC(=O)[C@H](CC(C)C)NC(=O)[C@@H]2CCCN2C(=O)[C@H](C(C)C)NC1=O [L1AD3, Leu-Lys-Cys-Asn-Lys-Leu-Val-Pro-Leu-Phe-Tyr-Lys-Thr-Cys] (H-LKCNKLVPLFYKTC-OH; disulfide 3-14)",pEC50,CEM cells [6],~5.30
same,externalization of phosphatidyl serine / Annexin-V binding in normal human white blood cells,[7]; 40 μM peptide (same concentration as CEM test),did not induce externalization of phosphatidyl serine; also recorded: not affected above background levels
same,"Annexin-V labelling of T-cells, B-cells and macrophages among PBL's","[7]; 1-hour incubation, double-labeled with anti CD-3, CD-19, CD-14",all were within background levels
same,pEC50,Jurkat cells,~5.30
same,permeabilizing effect on normal human cells,normal human cells,no permeabilizing effect
same,effect upon the beating of heart cells,"[8]; 40 μM, 2 hours",no effect
CC(C)C[C@H](NC(=O)[C@H](CCCCN)NC(=O)[C@H](CC(N)=O)NC(=O)[C@H](CS)NC(=O)[C@H](CCCCN)NC(=O)[C@@H](N)CC(C)C)C(=O)N[C@H](C(=O)N1CCC[C@H]1C(=O)N[C@@H](CC(C)C)C(=O)N[C@@H](Cc1ccccc1)C(=O)N[C@@H](Cc1ccc(O)cc1)C(=O)N[C@@H](CCCCN)C(=O)N[C@H](C(=O)N[C@@H](CS)C(=O)O)[C@@H](C)O)C(C)C [Linear L1AD3] (H-LKCNKLVPLFYKTC-OH; N-terminus and C-terminus assumed),EC50 of linear peptide relative to cyclized counterpart,CEM cells [6],more than eight times
same,pEC50,CEM cells [6],~4.37
"LKCNKLVPLFYKTCPAGKNLCYKMFMVATPKVPVKRGCIDVCPKSSLL VKYVCCNTDRCN (LKCNKLVPLFYKTCPAGKNLCYKMFMVATPKVPVKRGCIDVCPKSSLLVKYVCCNTDRCN; Naja naja atra) [CTX, parent 60-amino acid cytotoxin purified from the Taiwan cobra, Naja naja atra]",time until cells began to admit ethidium bromide,"CEM cells [9]; 1.6 μM, fluorescence spectrophotometer",≤ 15 min
same,time to induced permeability to propidium iodide,"CEM cells [9]; 10 μM, fluorescence microscopy",≤ 30 s
same,cell permeability to ethidium bromide or propidium iodide,CEM cells [9],rapidly became permeable
same,toxicity toward human leukemic T-lymphocytes,[10],highly toxic
same,time to cessation of beating of heart cells,[8],5 to 10 s
same,time to cessation of beating of heart cells,[8]; listed as “parent” cardiotoxin,10 to 30 s
CC[C@@]1(O)C(=O)OCc2c1cc1n(c2=O)Cc2cc3ccccc3nc2-1 [Camptothecin],cell permeability to ethidium bromide or propidium iodide,CEM cells [9],neither L1AD3 nor camptothecin caused increases in cell permeability
same,cells apoptotic (Annexin-V),CEM cells [11],33%
same,cells apoptotic (Annexin-V),CEM cells [11]; listed as camptothecin,23%
